Data: PubChem BioAssay (NCI)
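How tested: cells in 96-well plates exposed to compound for 48 hours at five concentrations. Here, GI50 denotes the concentration required for 50% inhibition of growth. TGI: total growth inhibition.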

How the values were obtained:
Test in all cases: growth of human tumour cells (NCI), 48 h
HCT-15 colon = system: HCT-15 colon
TK-10 renal = system: TK-10 renal
MOLT-4 leukemia = system: MOLT-4 leukemia
RXF 393 renal = system: RXF 393 renal
OVCAR-8 ovarian = system: OVCAR-8 ovarian
U251 CNS = system: U251 CNS
RPMI-8226 leukemia = system: RPMI-8226 leukemia
UACC-62 melanoma = system: UACC-62 melanoma
HOP-92 NSCLC = system: HOP-92 NSCLC
LOX IMVI melanoma = system: LOX IMVI melanoma
OVCAR-3 ovarian = system: OVCAR-3 ovarian
HT29 colon = system: HT29 colon
EKVX NSCLC = system: EKVX NSCLC
HL-60(TB) leukemia = system: HL-60(TB) leukemia
COLO 205 colon = system: COLO 205 colon
SF-268 CNS = system: SF-268 CNS
HCT-116 colon = system: HCT-116 colon
NCI-H226 lung = system: NCI-H226 lung
SNB-19 CNS = system: SNB-19 CNS
NCI-H460 lung = system: NCI-H460 lung
SK-MEL-2 melanoma = system: SK-MEL-2 melanoma
A549 NSCLC = system: A549 NSCLC
NCI/ADR-RES ovarian = system: NCI/ADR-RES ovarian
SN12C renal = system: SN12C renal
KM12 colon = system: KM12 colon
NCI-H23 lung = system: NCI-H23 lung
HOP-62 NSCLC = system: HOP-62 NSCLC
CCRF-CEM leukemia = system: CCRF-CEM leukemia
A498 renal = system: A498 renal
SF-539 CNS = system: SF-539 CNS
MCF7 breast = system: MCF7 breast
BT-549 breast = system: BT-549 breast
NCI-H522 lung = system: NCI-H522 lung
SK-OV-3 ovarian = system: SK-OV-3 ovarian
IGROV1 ovarian = system: IGROV1 ovarian
ACHN renal = system: ACHN renal
SW-620 colon = system: SW-620 colon
HS 578T breast = system: HS 578T breast
786-0 renal = system: 786-0 renal
SNB-75 CNS = system: SNB-75 CNS
OVCAR-5 ovarian = system: OVCAR-5 ovarian
UO-31 renal = system: UO-31 renal
MDA-MB-231 breast = system: MDA-MB-231 breast
PC-3 prostate = system: PC-3 prostate
CAKI-1 renal = system: CAKI-1 renal
HCC-2998 colon = system: HCC-2998 colon
DU-145 prostate = system: DU-145 prostate
SR leukemia = system: SR leukemia
K-562 leukemia = system: K-562 leukemia
SF-295 CNS = system: SF-295 CNS
MALME-3M melanoma = system: MALME-3M melanoma
M14 melanoma = system: M14 melanoma
OVCAR-4 ovarian = system: OVCAR-4 ovarian
SK-MEL-5 melanoma = system: SK-MEL-5 melanoma

Work on COC(=O)[C@@H](C)C[C@H](Cc1ccccc1)NC(=O)c1nc([C@@H](C[C@H](C(C)C)N(C)C(=O)[C@@H](NC(=O)[C@H]2CCCCN2C)C(C)C)OC(C)=O)sc1C(C)C yielded a GI50 (HCT-15 colon) of 33.5 nM, a TGI (HCT-15 colon) of 4.43 µM and a GI50 (TK-10 renal) of 117 nM. For the same molecule, the TGI (TK-10 renal) was 14.4 µM, the GI50 (MOLT-4 leukemia) was 13.9 nM and the TGI (MOLT-4 leukemia) was 14.5 µM. The GI50 (RXF 393 renal) was < 3.33 nM, the TGI (RXF 393 renal) was 7.78 µM and the GI50 (OVCAR-8 ovarian) was 7.92 nM. The TGI (OVCAR-8 ovarian) was 8.62 µM, the GI50 (U251 CNS) was 12 nM and the TGI (U251 CNS) was 8.51 µM. The GI50 (RPMI-8226 leukemia) was < 3.33 nM, the TGI (RPMI-8226 leukemia) was 6.96 µM and the GI50 (UACC-62 melanoma) was < 3.33 nM. The TGI (UACC-62 melanoma) was 32.6 µM, the GI50 (HOP-92 NSCLC) was 219 nM and the TGI (HOP-92 NSCLC) was > 21.6 µM. For the same molecule, the GI50 (LOX IMVI melanoma) was 7.91 nM, the TGI (LOX IMVI melanoma) was 3.93 µM and the GI50 (OVCAR-3 ovarian) was < 3.33 nM. The TGI (OVCAR-3 ovarian) was 70.3 nM, the GI50 (HT29 colon) was < 3.33 nM and the TGI (HT29 colon) was 583 nM. The GI50 (EKVX NSCLC) was 13.5 nM, the TGI (EKVX NSCLC) was > 33.3 µM and the GI50 (HL-60(TB) leukemia) was < 3.33 nM. The TGI (HL-60(TB) leukemia) was < 3.33 nM, the GI50 (COLO 205 colon) was 5.22 nM and the TGI (COLO 205 colon) was 40.1 nM. The GI50 (SF-268 CNS) was 18.4 nM, the TGI (SF-268 CNS) was 7.72 µM and the GI50 (HCT-116 colon) was < 3.33 nM. It also gave a TGI (HCT-116 colon) of 476 nM, a GI50 (NCI-H226 lung) of 12.2 nM and a TGI (NCI-H226 lung) of 1370 nM. The GI50 (SNB-19 CNS) was < 3.33 nM, the TGI (SNB-19 CNS) was > 33.3 µM and the GI50 (NCI-H460 lung) was 4.5 nM. For the same molecule, the TGI (NCI-H460 lung) was 3.52 µM, the GI50 (SK-MEL-2 melanoma) was 5.03 nM and the TGI (SK-MEL-2 melanoma) was 5.73 µM. The GI50 (A549 NSCLC) was 18.7 nM, the TGI (A549 NSCLC) was 15.7 µM and the GI50 (NCI/ADR-RES ovarian) was 216 nM. For the same molecule, the TGI (NCI/ADR-RES ovarian) was > 7.8 µM, the GI50 (SN12C renal) was 7.65 nM and the TGI (SN12C renal) was 4.51 µM. The GI50 (KM12 colon) was < 3.33 nM, the TGI (KM12 colon) was 4.2 µM and the GI50 (NCI-H23 lung) was 9.65 nM. It also gave a TGI (NCI-H23 lung) of 16.1 µM, a GI50 (HOP-62 NSCLC) of 12.9 nM and a TGI (HOP-62 NSCLC) of 10.4 µM. For the same molecule, the GI50 (CCRF-CEM leukemia) was 7.93 nM, the TGI (CCRF-CEM leukemia) was > 33.3 µM and the GI50 (A498 renal) was < 3.33 nM. It also gave a TGI (A498 renal) of 7.76 nM, a GI50 (SF-539 CNS) of 7 nM and a TGI (SF-539 CNS) of 24.2 nM. The GI50 (MCF7 breast) was < 3.33 nM, the TGI (MCF7 breast) was > 25.6 µM and the GI50 (BT-549 breast) was < 3.33 nM. For the same molecule, the TGI (BT-549 breast) was 83.7 nM, the GI50 (NCI-H522 lung) was < 3.33 nM and the TGI (NCI-H522 lung) was 55 nM. For the same molecule, the GI50 (SK-OV-3 ovarian) was < 3.33 nM, the TGI (SK-OV-3 ovarian) was 33.1 µM and the GI50 (IGROV1 ovarian) was < 3.33 nM. The TGI (IGROV1 ovarian) was > 11.9 µM, the GI50 (ACHN renal) was < 3.33 nM and the TGI (ACHN renal) was 7.06 µM. The GI50 (SW-620 colon) was < 3.33 nM, the TGI (SW-620 colon) was > 25.7 µM and the GI50 (HS 578T breast) was 5.03 nM. The TGI (HS 578T breast) was 1340 nM, the GI50 (786-0 renal) was < 3.33 nM and the TGI (786-0 renal) was 1060 nM. The GI50 (SNB-75 CNS) was 3.88 nM, the TGI (SNB-75 CNS) was 9.38 µM and the GI50 (OVCAR-5 ovarian) was 13.6 nM. For the same molecule, the TGI (OVCAR-5 ovarian) was 16 µM, the GI50 (UO-31 renal) was 15.4 nM and the TGI (UO-31 renal) was 5.37 µM. For the same molecule, the GI50 (MDA-MB-231 breast) was 9.02 nM, the TGI (MDA-MB-231 breast) was 2200 nM and the GI50 (PC-3 prostate) was < 3.33 nM. For the same molecule, the TGI (PC-3 prostate) was > 33.3 µM, the GI50 (CAKI-1 renal) was 4.83 nM and the TGI (CAKI-1 renal) was 5.53 µM. For the same molecule, the GI50 (HCC-2998 colon) was < 3.33 nM, the TGI (HCC-2998 colon) was 1440 nM and the GI50 (DU-145 prostate) was < 3.33 nM. For the same molecule, the TGI (DU-145 prostate) was 434 nM, the GI50 (SR leukemia) was < 3.33 nM and the TGI (SR leukemia) was > 15 µM. For the same molecule, the GI50 (K-562 leukemia) was < 3.33 nM, the TGI (K-562 leukemia) was 5.43 µM and the GI50 (SF-295 CNS) was < 3.33 nM. It also gave a TGI (SF-295 CNS) of 276 nM, a GI50 (MALME-3M melanoma) of 42.4 nM and a TGI (MALME-3M melanoma) of 5.81 µM. For the same molecule, the GI50 (M14 melanoma) was 3.38 nM, the TGI (M14 melanoma) was 12.7 nM and the GI50 (OVCAR-4 ovarian) was 10.3 nM. The TGI (OVCAR-4 ovarian) was > 33.3 µM, the GI50 (SK-MEL-5 melanoma) was < 3.33 nM and the TGI (SK-MEL-5 melanoma) was 44.9 nM.
